Test results from paper PMC11905624 (BMC Biology, 2025).
Peptide text beside a SMILES is read from it.

T1: B2 receptor (Homo sapiens, UniProt P30411)
T1 construct: endogenous in cells; host or cells: HaCaT
T1 sequence (P30411 1-391): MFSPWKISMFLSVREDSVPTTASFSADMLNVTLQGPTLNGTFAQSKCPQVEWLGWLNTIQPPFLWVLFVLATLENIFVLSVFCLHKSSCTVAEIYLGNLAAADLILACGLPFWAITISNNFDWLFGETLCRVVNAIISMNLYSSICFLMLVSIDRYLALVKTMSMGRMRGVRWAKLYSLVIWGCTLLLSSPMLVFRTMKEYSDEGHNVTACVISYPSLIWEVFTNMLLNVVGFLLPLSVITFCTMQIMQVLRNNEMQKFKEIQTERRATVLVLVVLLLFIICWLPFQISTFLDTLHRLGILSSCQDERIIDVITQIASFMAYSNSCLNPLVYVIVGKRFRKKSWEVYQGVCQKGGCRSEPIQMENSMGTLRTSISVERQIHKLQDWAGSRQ

B1: carbamylated HMWK: carbamylated high molecular weight kininogen (protein, UniProt P01042 19-644, looked up)
Kininogen-1: QESQSEEIDCNDKDLFKAVDAALKKYNSQNQSNNQFVLYRITEATKTVGSDTFYSFKYEIKEGDCPVQSGKTWQDCEYKDAAKAATGECTATVGKRSSTKFSVATQTCQITPAEGPVVTAQYDCLGCVHPISTQSPDLEPILRHGIQYFNNNTQHSSLFMLNEVKRAQRQVVAGLNFRITYSIVQTNCSKENFLFLTPDCKSLWNGDTGECTDNAYIDIQLRIASFSQNCDIYPGKDFVQPPTKICVGCPRDIPTNSPELEETLTHTITKLNAENNATFYFKIDNVKKARVQVVAGKKYFIDFVARETTCSKESNEELTESCETKKLGQSLDCNAEVYVVPWEKKIYPTVNCQPLGMISLMKRPPGFSPFRSSRIGEIKEETTVSPPHTSMAPAQDEERDSGKEQGHTRRHDWGHEKQRKHNLGHGHKHERDQGHGHQRGHGLGHGHEQQHGLGHGHKFKLDDDLEHQGGHVLDHGHKHKHGHGHGKHKNKGKKNGKHNGWKTEHLASSSEDSTTPSAQTQEKTEGPTPIPSLAKPGVTVTFSDFQDSDLIATMMPPISPAPIQSDDDWIPDIQIDPNGLSFNPISDFPDTTSPKCPGRPWKSVSEINPTTQMKESYYFDLTDGLS
modifications: High molecular weight kininogen carbamylated

Key:
[1] = target: T1, B2 receptor; test: Intracellular calcium flux in HaCaT cells; format: cell-based
Description: HaCaT cells were seeded onto 96-well plates and, upon reaching full confluence, were starved for 3 h (medium without FBS). […] After 1.5 h in 37 °C, fluorescence intensity (485/525 nm) was recorded continuously for 5 min using FlexStation 3 (Molecular Devices). […] FBS (3%) served as positive control. Results were calculated as area under the curves of RFU fold change from the signal recorded at baseline and adjusted to % of maximum response (FBS) curve. Non-linear regression analyses were performed to generate dose–response curves and calculate EC50 values.

[2] = target: T2, pKLK (Homo sapiens, UniProt P03952); test: BK release from HMWK by pKLK, HPLC; format: biochemical; conditions: 5 µg HMWK, 500 nM pKLK, 24 h, 50 mM Tris-HCl pH 7.5, 37 °C
T2 construct: purchased Merck
Description: Ten µg of BK or cBK (ProImmune) were incubated with 15 ng of CPM (RnD; 1 h in 50 mM MES buffer pH 6.0 containing 5 mM CaCl2, 0.2% Triton-X100), 20 ng of NEP (RnD; 2 h in 50 mM HEPES buffer pH 7.4 containing 150 mM NaCl, 0,01% Triton-X100) or 40 ng of ACE1 (Merck; 4 h in 20 mM HEPES buffer containing 100 µM ZnCl2, 300 mM KCl) in final volume of 11 µl in 37 °C. Substrate controls were incubated in parallel without enzymes. Five µg of HMWK (Merck) were incubated with 500 nM of pKLK (Merck; 24 h in 50 mM Tris–HCl buffer pH 7.5 containing 100 mM NaCl, 0.01% Triton-X100) in final volume of 35 µl in 37 °C. Reactions were stopped with addition of TFA, TCA, EDTA and inhibitors for ACE1 (1 µM lisinopril), NEP (4 mM thiorphan), pKLK (1 mM AEBSF), and analysed via HPLC.
Absorbance chromatograms (215 nm) were evaluated with the LabSolutions software.

T2 sequence (P03952 20-638): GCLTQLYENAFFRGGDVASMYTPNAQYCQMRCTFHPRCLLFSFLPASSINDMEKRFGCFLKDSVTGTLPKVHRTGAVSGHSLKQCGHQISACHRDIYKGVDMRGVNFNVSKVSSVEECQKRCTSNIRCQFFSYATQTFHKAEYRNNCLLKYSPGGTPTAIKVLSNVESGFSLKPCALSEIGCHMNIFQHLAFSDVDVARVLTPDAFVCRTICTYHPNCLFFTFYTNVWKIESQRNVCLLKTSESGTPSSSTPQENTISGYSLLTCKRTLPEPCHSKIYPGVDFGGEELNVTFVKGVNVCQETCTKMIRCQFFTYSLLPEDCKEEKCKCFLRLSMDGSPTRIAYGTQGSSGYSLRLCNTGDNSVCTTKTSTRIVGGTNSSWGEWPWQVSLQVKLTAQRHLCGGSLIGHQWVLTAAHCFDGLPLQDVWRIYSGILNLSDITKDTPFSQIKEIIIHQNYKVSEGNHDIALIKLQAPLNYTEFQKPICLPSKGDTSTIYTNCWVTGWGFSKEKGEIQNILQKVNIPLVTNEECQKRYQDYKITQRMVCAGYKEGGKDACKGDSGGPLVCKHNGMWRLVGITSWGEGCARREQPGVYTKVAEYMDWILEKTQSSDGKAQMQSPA

Molecule | B2-stimulatory potential lower than the response elicited by native BK ([1]; 100 nM peptide, calcium sensitive dye) | EC50 ([1]; Calcium Dye 5, AUC of RFU fold change as % of maximum response (FBS), n = 6, mean ± SEM) [nM] | pKLK-driven generation of BK [2]
N=C(N)NCCC[C@H](NC(=O)[C@H](Cc1ccccc1)NC(=O)[C@@H]1CCCN1C(=O)[C@H](CO)NC(=O)[C@H](Cc1ccccc1)NC(=O)CNC(=O)[C@@H]1CCCN1C(=O)[C@@H]1CCCN1C(=O)[C@H](CCCNC(=N)N)NC(N)=O)C(=O)O [cBK] (HELM PEPTIDE1{[N=C(N)NCCC[C@H](NC(N)=O)C(=O)[*:2]].P.P.G.F.S.P.F.R}$$$$V2.0) | over 25% | 26.55 ± 0.0011 | –
B1 | – | – | abolishes
